According to patent US12594268B2, “Methods of treating Fabry disease in patients having a mutation in the GLA gene” (Amicus Therapeutics, Inc., priority 2018, dated 2026):
Substitutions are numbered along the chain they refer to.

What was measured:
Format in all cases: cell-based
[1] = molecular target: T1, α-Gal A mutant form W204G (Homo sapiens, UniProt P06280, W204G); assay: α-Gal A activity in lysates of transfected HEK-293 cells, W204G
T1 construct: expressed in transfected cells; host or cells: HEK-293
T1 sequence (P06280 32-429 W204G): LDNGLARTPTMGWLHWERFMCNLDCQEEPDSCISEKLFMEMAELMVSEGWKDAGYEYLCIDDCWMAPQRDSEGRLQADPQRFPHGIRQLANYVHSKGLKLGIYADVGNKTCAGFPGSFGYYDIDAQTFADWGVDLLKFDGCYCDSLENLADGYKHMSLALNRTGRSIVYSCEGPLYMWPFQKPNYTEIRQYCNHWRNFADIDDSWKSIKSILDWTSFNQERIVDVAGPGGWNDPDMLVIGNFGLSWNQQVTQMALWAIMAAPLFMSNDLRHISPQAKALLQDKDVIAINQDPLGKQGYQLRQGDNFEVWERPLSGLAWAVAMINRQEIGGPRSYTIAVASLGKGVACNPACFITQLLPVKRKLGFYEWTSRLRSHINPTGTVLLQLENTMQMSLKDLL
Experimental: (§1) Baseline and 10 μM migalastat α-Gal A activity: Differences in the α-Gal A activity between lysates incubated in the absence and presence of 10 μM migalastat were determined using a one-tailed, Mann Whitney U test; an increase at 10 μM migalastat with a p<0.05 was considered significant.
(§2) 10 μM migalastat α-Gal A activity (% WT)=(α-Gal A activity in mutant transfected cell lysates incubated with 10 μM migalastat÷α-Gal A activity in wild-type transfected cell lysates without migalastat)*100.
(§3) Absolute increase (% WT)=is the 10 μM migalastat α-Gal A activity (% WT) minus the baseline α-Gal A activity (% WT).
(§4) Relative increase is the 10 μM migalastat α-Gal A activity in mutant transfected cell lysates÷baseline α-Gal A activity in mutant transfected cell lysates incubated without migalastat.

[2] = molecular target: T2, α-Gal A mutant form S62delinsLA (Homo sapiens, UniProt P06280, INS61L/S62A); assay: α-Gal A activity in lysates of transfected HEK-293 cells, S62delinsLA
T2 construct: expressed in transfected cells; host or cells: HEK-293
T2 sequence (P06280 with tags, fused parts or gaps INS61L/S62A): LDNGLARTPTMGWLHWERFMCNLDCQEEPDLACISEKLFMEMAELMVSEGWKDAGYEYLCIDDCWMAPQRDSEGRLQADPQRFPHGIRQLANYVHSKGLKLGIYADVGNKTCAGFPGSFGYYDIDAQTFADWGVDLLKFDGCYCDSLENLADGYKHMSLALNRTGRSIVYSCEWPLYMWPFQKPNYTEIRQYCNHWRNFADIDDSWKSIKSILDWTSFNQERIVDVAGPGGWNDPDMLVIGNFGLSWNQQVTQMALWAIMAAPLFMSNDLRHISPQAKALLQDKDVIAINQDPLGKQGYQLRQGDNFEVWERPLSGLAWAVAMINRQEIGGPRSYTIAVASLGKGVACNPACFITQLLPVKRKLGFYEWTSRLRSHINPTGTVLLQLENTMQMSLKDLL
Experimental: as §1, §2, §3, §4

α-Gal A mutant form M96V = molecular target: T3, α-Gal A mutant form M96V (Homo sapiens, UniProt P06280, M96V); assay: α-Gal A activity in lysates of transfected HEK-293 cells, M96V
T3 construct: expressed in transfected cells; host or cells: HEK-293
T3 sequence (P06280 32-429 M96V): T1 sequence (P06280 32-429 W204G) with M65V, G173W
Experimental: as §1, §2, §3, §4

[3] = molecular target: T4, α-Gal A mutant form Q330P (Homo sapiens, UniProt P06280, Q330P); assay: α-Gal A activity in lysates of transfected HEK-293 cells, Q330P
T4 construct: expressed in transfected cells; host or cells: HEK-293
T4 sequence (P06280 32-429 Q330P): T1 sequence (P06280 32-429 W204G) with G173W, Q299P
Experimental: as §1, §2, §3, §4

[4] = molecular target: T5, α-Gal A mutant form N320H (Homo sapiens, UniProt P06280, N320H); assay: α-Gal A activity in lysates of transfected HEK-293 cells, N320H
T5 construct: expressed in transfected cells; host or cells: HEK-293
T5 sequence (P06280 32-429 N320H): T1 sequence (P06280 32-429 W204G) with G173W, N289H
Experimental: as §1, §2, §3, §4

[5] = HEK-293 lysates, 10 μM migalastat, 5 days, mean ± SEM
[6] = 10 μM migalastat minus baseline
[7] = 10 μM migalastat ÷ baseline activity

Absolute increase (% WT) ([1]; 10 μM migalastat minus baseline (baseline BLD)): 6.5 % WT
10 nM migalastat α-Gal A activity ([1]; HEK-293 lysates, 10 nM migalastat as printed, 5 days, mean ± SEM, baseline BLD): 1695 ± 198 nmol/mg/h
10 μM migalastat α-Gal A activity (% WT) [1, 5]: 6.5 ± 0.7 % WT
Absolute increase (% WT) [2, 6]: 20.9 % WT
Relative increase [2, 7]: 50.92
10 μM migalastat α-Gal A activity [2, 5]: 8115 ± 810 nmol/mg/h
10 μM migalastat α-Gal A activity (% WT) [2, 5]: 21.3 ± 1.7 % WT
Absolute increase (% WT) (α-Gal A mutant form M96V; [6]): 24.2 % WT
Relative increase (α-Gal A mutant form M96V; [7]): 2.68
10 μM migalastat α-Gal A activity (α-Gal A mutant form M96V; [5]): 14612 ± 1009 nmol/mg/h
10 μM migalastat α-Gal A activity (% WT) (α-Gal A mutant form M96V; [5]): 38.1 ± 2.4 % WT
Absolute increase (% WT) [3, 6]: 24.4 % WT
Relative increase [3, 7]: 2.21
10 μM migalastat α-Gal A activity [3, 5]: 12375 ± 664 nmol/mg/h
10 μM migalastat α-Gal A activity (% WT) [3, 5]: 45.8 ± 1.9 % WT
Absolute increase (% WT) [4, 6]: 32.2 % WT
Relative increase [4, 7]: 2.59
10 μM migalastat α-Gal A activity [4, 5]: 22149 ± 1050 nmol/mg/h
10 μM migalastat α-Gal A activity (% WT) [4, 5]: 52.9 ± 3.1 % WT
Compound: OC[C@H]1NC[C@H](O)[C@@H](O)[C@H]1O [migalastat, (2R,3S,4R,5S)-2-(hydroxymethyl) piperdine-3,4,5-triol]
